Measured values taken from US10314823B2, “Substituted 1,2-dihydro-3H-pyrrolo[1,2-c]imidazol-3-one antibacterial compounds” (IDORSIA PHARMACEUTICALS LTD, priority 2015, dated 2019).
≈ marks a conversion by molar mass, not a printed value.

Tests used:
Experiment in all cases: Bacterial growth minimal inhibitory concentration (CLSI broth microdilution)
Type in all cases: cell-based
E. coli ATCC25922 = conditions: Escherichia coli, ATCC25922; quinolone-sensitive strain; cation-adjusted Mueller-Hinton Broth
Experimental: (§1) Minimal Inhibitory Concentrations (MICs; mg/L) were determined in cation-adjusted Mueller-Hinton Broth by a microdilution method following the description given in “Methods for Dilution Antimicrobial Susceptibility Tests for Bacteria that Grow Aerobically”, Approved standard, 7th ed., Clinical and Laboratory Standards Institute (CLSI) Document M7-A7, Wayne, Pa., USA (2006).
(§2) All Reference Example compounds were tested against several Gram-negative bacteria. K. pneumoniae A-651 is a multiply resistant strain (in particular quinolone-resistant), while E. coli ATCC25922 and P. aeruginosa ATCC27853 are quinolone-sensitive strains. The corresponding antibacterial test results are given in Table 1 hereafter (MICs in mg/L).

P. aeruginosa ATCC27853 = conditions: Pseudomonas aeruginosa, ATCC27853; quinolone-sensitive strain; cation-adjusted Mueller-Hinton Broth
Experimental: as §1, §2

K. pneumoniae A-651 = conditions: Klebsiella pneumoniae, A651; multiply resistant strain (in particular quinolone-resistant); cation-adjusted Mueller-Hinton Broth
Experimental: as §1, §2

Row | Structure (SMILES) | MIC (E. coli ATCC25922) [µg/mL] | MIC (P. aeruginosa ATCC27853) [µg/mL] | MIC (K. pneumoniae A-651) [µg/mL]
1 | C[C@@](CCN1Cc2cc(C#CC#C[C@@H]3C[C@H]3CN3CCOCC3)cn2C1=O)(C(=O)NO)S(C)(=O)=O [Example 29, (2R)—N-hydroxy-2-methyl-2-(methylsulfonyl)-4-(6-(((1R,2R)-2-(morpholinomethyl)cyclopropyl)buta-1,3-diyn-1-yl)-3-oxo-1H-pyrrolo[1,2-c]imidazol-2(3H)-yl)butanamide] | 0.25 (≈ 0.497 µM) | 2 (≈ 3.98 µM) | 0.5 (≈ 0.995 µM)
2 | C[C@@](CCN1Cc2cc(C#Cc3ccc(CNC(=O)OC4CNC4)cc3)cn2C1=O)(C(=O)NO)S(C)(=O)=O [Example 26, azetidin-3-yl (3R)-(4-((2-(4-(hydroxyamino)-3-methyl-3-(methylsulfonyl)-4-oxobutyl)-3-oxo-2,3-dihydro-1H-pyrrolo[1,2-c]imidazol-6-yl)ethynyl)benzyl)carbamate] | 8 (≈ 14.7 µM) | 4 (≈ 7.36 µM) | 8 (≈ 14.7 µM)
3 | C[C@@](CCN1Cc2cc(C#Cc3ccc([C@@H](O)CN4CCOCC4)cc3)cn2C1=O)(C(=O)NO)S(C)(=O)=O (single isomer, unassigned) [Example 1] | 1 (≈ 1.84 µM) | 2 (≈ 3.67 µM) | 2 (≈ 3.67 µM)
4 | C[C@@](CCN1Cc2cc(C#CC#CCN3CCOC3=O)cn2C1=O)(C(=O)NO)S(C)(=O)=O [Example 9, (2R)—N-hydroxy-2-methyl-2-(methylsulfonyl)-4-(3-oxo-6-(5-(2-oxooxazolidin-3-yl)penta-1,3-diyn-1-yl)-1H-pyrrolo[1,2-c]imidazol-2(3H)-yl)butanamide] | 2 (≈ 4.32 µM) | 8 (≈ 17.3 µM) | 4 (≈ 8.65 µM)
5 | C[C@@](CCN1Cc2cc(C#Cc3ccc(CN4CC[C@H](N)[C@@H](F)C4)cc3)cn2C1=O)(C(=O)NO)S(C)(=O)=O (relative stereo) [Example 13, (2R)-4-(6-((4-(((3S*,4S*)-4-amino-3-fluoropiperidin-1-yl)methyl)phenyl)ethynyl)-3-oxo-1H-pyrrolo[1,2-c]imidazol-2(3H)-yl)-N-hydroxy-2-methyl-2-(methylsulfonyl)butanamide] | 1 (≈ 1.83 µM) | 1 (≈ 1.83 µM) | 1 (≈ 1.83 µM)
6 | C[C@@](CCN1Cc2cc(C#Cc3ccc([C@H](O)CN4CCOCC4)cc3)cn2C1=O)(C(=O)NO)S(C)(=O)=O (single isomer, unassigned) [Example 2] | 1 (≈ 1.84 µM) | 1 (≈ 1.84 µM) | 1 (≈ 1.84 µM)
7 | C[C@@](CCN1Cc2cc(C#CC#CC3(F)CN(C4COC4)C3)cn2C1=O)(C(=O)NO)S(C)(=O)=O [Example 19, (2R)-4-(6-((3-fluoro-1-(oxetan-3-yl)azetidin-3-yl)buta-1,3-diyn-1-yl)-3-oxo-1H-pyrrolo[1,2-c]imidazol-2(3H)-yl)-N-hydroxy-2-methyl-2-(methylsulfonyl)butanamide] | 0.25 (≈ 0.508 µM) | 2 (≈ 4.06 µM) | 1 (≈ 2.03 µM)
8 | CNC1(C#CC#Cc2cc3n(c2)C(=O)N(CC[C@](C)(C(=O)NO)S(C)(=O)=O)C3)CC1 [Example 38, (2R)—N-hydroxy-2-methyl-4-(6-((1-(methylamino)cyclopropyl)buta-1,3-diyn-1-yl)-3-oxo-1H-pyrrolo[1,2-c]imidazol-2(3H)-yl)-2-(methylsulfonyl)butanamide] | 0.063 (≈ 0.146 µM) | 0.5 (≈ 1.16 µM) | 0.25 (≈ 0.578 µM)
9 | C[C@@](CCN1Cc2cc(C#Cc3ccc(COC(=O)N4CCC(O)CC4)cc3)cn2C1=O)(C(=O)NO)S(C)(=O)=O [Example 5, (3R)-4-((2-(4-(hydroxyamino)-3-methyl-3-(methylsulfonyl)-4-oxobutyl)-3-oxo-2,3-dihydro-1H-pyrrolo[1,2-c]imidazol-6-yl)ethynyl)benzyl 4-hydroxypiperidine-1-carboxylate] | 0.25 (≈ 0.437 µM) | 2 (≈ 3.49 µM) | 1 (≈ 1.75 µM)
10 | COCCN(C)CC(O)c1ccc(C#Cc2cc3n(c2)C(=O)N(CC[C@](C)(C(=O)NO)S(C)(=O)=O)C3)cc1 (mixture of isomers) [Example 28, (2R)—N-hydroxy-4-(6-((RS)-(4-(1-hydroxy-2-((2-methoxyethyl)(methyl)amino)ethyl)phenyl)ethynyl)-3-oxo-1H-pyrrolo[1,2-c]imidazol-2(3H)-yl)-2-methyl-2-(methylsulfonyl)butanamide] | 1 | 2 | 8
11 | C[C@@](CCN1Cc2cc(C#CC#CC3(F)CNC3)cn2C1=O)(C(=O)NO)S(C)(=O)=O [Example 18, (2R)-4-(6-((3-fluoroazetidin-3-yl)buta-1,3-diyn-1-yl)-3-oxo-1H-pyrrolo[1,2-c]imidazol-2(3H)-yl)-N-hydroxy-2-methyl-2-(methylsulfonyl)butanamide] | 2 (≈ 4.58 µM) | 2 (≈ 4.58 µM) | 4 (≈ 9.16 µM)
12 | CN1CC(OC(=O)NCC#CC#Cc2cc3n(c2)C(=O)N(CC[C@](C)(C(=O)NO)S(C)(=O)=O)C3)C1 [Example 39, 1-methylazetidin-3-yl (3R)-(5-(2-(4-(hydroxyamino)-3-methyl-3-(methylsulfonyl)-4-oxobutyl)-3-oxo-2,3-dihydro-1H-pyrrolo[1,2-c]imidazol-6-yl)penta-2,4-diyn-1-yl)carbamate] | 8 (≈ 15.8 µM) | 4 (≈ 7.91 µM) | 4 (≈ 7.91 µM)

Continued, values first:

Row | MIC (E. coli ATCC25922) [µg/mL] | MIC (P. aeruginosa ATCC27853) [µg/mL] | MIC (K. pneumoniae A-651) [µg/mL] | Structure (SMILES)
13 | 1 | 1 | 1 | C[C@@](CCN1Cc2cc(C#CC#CC3(F)CCNC3)cn2C1=O)(C(=O)NO)S(C)(=O)=O (mixture of isomers) [Example 78, (2R)-4-(6-(((3RS)-3-fluoropyrrolidin-3-yl)buta-1,3-diyn-1-yl)-3-oxo-1H-pyrrolo[1,2-c]imidazol-2(3H)-yl)-N-hydroxy-2-methyl-2-(methylsulfonyl)butanamide]
14 | 0.5 | 1 | 1 | C[C@@](CCN1Cc2cc(C#CC#CC3(F)CCN(CCO)C3)cn2C1=O)(C(=O)NO)S(C)(=O)=O (mixture of isomers) [Example 77, (2R)-4-(6-(((3RS)-3-fluoro-1-(2-hydroxyethyl)pyrrolidin-3-yl)buta-1,3-diyn-1-yl)-3-oxo-1H-pyrrolo[1,2-c]imidazol-2(3H)-yl)-N-hydroxy-2-methyl-2-(methylsulfonyl)butanamide]
15 | 0.5 (≈ 0.995 µM) | 2 (≈ 3.98 µM) | 1 (≈ 1.99 µM) | CN1CC(C#Cc2ccc(-c3cc4n(c3)C(=O)N(CC[C@](C)(C(=O)NO)S(C)(=O)=O)C4)c(F)c2)C1 [Example 84, (2R)-4-(6-(2-fluoro-4-((1-methylazetidin-3-yl)ethynyl)phenyl)-3-oxo-1H-pyrrolo[1,2-c]imidazol-2(3H)-yl)-N-hydroxy-2-methyl-2-(methylsulfonyl)butanamide]
16 | 0.5 (≈ 1.08 µM) | 0.5 (≈ 1.08 µM) | 1 (≈ 2.16 µM) | CN1C[C@H](C#CC#Cc2cc3n(c2)C(=O)N(CC[C@](C)(C(=O)NO)S(C)(=O)=O)C3)[C@H]1CO [Example 97, (2R)—N-hydroxy-4-(6-(((2S,3S)-2-(hydroxymethyl)-1-methylazetidin-3-yl)buta-1,3-diyn-1-yl)-3-oxo-1H-pyrrolo[1,2-c]imidazol-2(3H)-yl)-2-methyl-2-(methylsulfonyl)butanamide]
17 | 0.063 (≈ 0.131 µM) | 1 (≈ 2.07 µM) | 0.25 (≈ 0.518 µM) | C[C@@](CCN1Cc2cc(C#CC#CC3CN(CC(F)F)C3)cn2C1=O)(C(=O)NO)S(C)(=O)=O [Example 68, (2R)-4-(6-((1-(2,2-difluoroethyl)azetidin-3-yl)buta-1,3-diyn-1-yl)-3-oxo-1H-pyrrolo[1,2-c]imidazol-2(3H)-yl)-N-hydroxy-2-methyl-2-(methylsulfonyl)butanamide]
18 | 8 (≈ 15.4 µM) | > 8 | 8 (≈ 15.4 µM) | C[C@@](CCN1Cc2cc(C#CC#CC3(O)CCN(C4COC4)CC3)cn2C1=O)(C(=O)NO)S(C)(=O)=O [Example 45, (2R)—N-hydroxy-4-(6-((4-hydroxy-1-(oxetan-3-yl)piperidin-4-yl)buta-1,3-diyn-1-yl)-3-oxo-1H-pyrrolo[1,2-c]imidazol-2(3H)-yl)-2-methyl-2-(methylsulfonyl)butanamide]
19 | 1 (≈ 2.15 µM) | 1 (≈ 2.15 µM) | 2 (≈ 4.3 µM) | [2H]C([2H])([2H])S(=O)(=O)[C@](C)(CCN1Cc2cc(C#CC#CC3CN(CCO)C3)cn2C1=O)C(=O)NO [Example 81, (2R)—N-hydroxy-4-(6-((1-(2-hydroxyethyl)azetidin-3-yl)buta-1,3-diyn-1-yl)-3-oxo-1H-pyrrolo[1,2-c]imidazol-2(3H)-yl)-2-methyl-2-((methyl-d3)sulfonyl)butanamide]
20 | 2 (≈ 4.34 µM) | 4 (≈ 8.69 µM) | 2 (≈ 4.34 µM) | CN(C)C[C@@H]1C[C@H]1C#CC#Cc1cc2n(c1)C(=O)N(CC[C@](C)(C(=O)NO)S(C)(=O)=O)C2 [Example 44, (2R)-4-(6-(((1R,2R)-2-((dimethylamino)methyl)cyclopropyl)buta-1,3-diyn-1-yl)-3-oxo-1H-pyrrolo[1,2-c]imidazol-2(3H)-yl)-N-hydroxy-2-methyl-2-(methylsulfonyl)butanamide]
21 | 1 (≈ 2.24 µM) | 1 (≈ 2.24 µM) | 1 (≈ 2.24 µM) | CN1CC(C)(C#CC#Cc2cc3n(c2)C(=O)N(CC[C@](C)(C(=O)NO)S(C)(=O)=O)C3)C1 [Example 65, (2R)-4-(6-((1,3-dimethylazetidin-3-yl)buta-1,3-diyn-1-yl)-3-oxo-1H-pyrrolo[1,2-c]imidazol-2(3H)-yl)-N-hydroxy-2-methyl-2-(methylsulfonyl)butanamide]
22 | 0.125 (≈ 0.265 µM) | 1 (≈ 2.12 µM) | 0.125 (≈ 0.265 µM) | C[C@@](CCN1Cc2cc(C#CC#CC3CN(C4CCC4)C3)cn2C1=O)(C(=O)NO)S(C)(=O)=O [Example 62, (2R)-4-(6-((1-cyclobutylazetidin-3-yl)buta-1,3-diyn-1-yl)-3-oxo-1H-pyrrolo[1,2-c]imidazol-2(3H)-yl)-N-hydroxy-2-methyl-2-(methylsulfonyl)butanamide]
